According to PMC5854716, “Synthesis, molecular docking, ctDNA interaction, DFT calculation and evaluation of antiproliferative and anti-Toxoplasma gondii activities of 2,4-diaminotriazine-thiazole derivatives” (Medicinal Chemistry Research, 2018):

How the values were obtained:
[1] = tested on: biphenotypic B myelomonocytic leukemia MV4-11 cells; test: In vitro antiproliferative assay (MTT), MV4-11; format: cell-based, human; conditions: mean ± SD; for IC50 MV4-11: 72 h exposure; for IC50: Homo sapiens, MV4-11, 72 h exposure
Procedure: Biphenotypic B myelomonocytic leukemia MV4-11, human lung carcinoma A549, human breast carcinoma MCF-7, and normal mouse fibroblast BALB/3T3 cells were obtained from American Type Culture Collection (Rockville, Maryland, USA). All the cell lines are being maintained at the Institute of Immunology and Experimental Therapy, Wroclaw, Poland. MV4-11 cells were cultured in RPMI 1640 medium (Gibco, UK) with 2 mM L-glutamine adjusted to contain 1.0 mM sodium pyruvate, and 10% fetal bovine serum (FBS) (all from Sigma-Aldrich, Germany). A549 cells were cultured in RPMI 1640+ Opti-MEM (1:1) (both from Gibco, UK), MCF-7 cells in Eagle medium (IIET, Wroclaw, Poland), BALB/3T3 in Dulbecco medium (IIET, Poland) supplemented with 2 mM L-glutamine and 1.0 mM sodium pyruvate, 10% fetal bovine serum (all from Sigma-Aldrich, Germany). The MCF-7 cell culture was supplemented with 0.8 mg/l of insulin (Sigma-Aldrich, Germany). All culture media were supplemented with 100 units/ml penicillin, and 100 µg/ml streptomycin (both from Polfa Tarchomin S.A., Poland). All cell lines were grown at 37 °C with 5% CO2 humidified atmosphere (Łączkowski et al. [2014], [2016a]).
Prior to usage, the compounds were dissolved in DMSO and culture medium (1: 9) to the concentration of 1 mg/ml, and subsequently diluted in culture medium to reach the required concentrations (0.1, 1, 10, and 100 µg/ml) (Łączkowski et al. [2014], [2016a]).
Twenty-four hours prior to the addition of the tested compounds, the cells counted using Burker hemocytometer were plated in 96-well plates (Sarstedt, Germany) at a density of 1 × 10^4 cells per well. The assay was performed after 72 h of exposure to varying concentrations of the tested agents. The in vitro cytotoxic effect of all agents was examined using the SRB assay for adherent cells (A549, MCF-7, and BALB/3T3) or MTT assay for leukemia cells (MV4-11) as described previously. The results were calculated as an inhibitory concentration 50 (IC50)—the concentration of tested agent which inhibits proliferation of 50% of the cancer cell population. Each compound in each concentration was tested in triplicate in a single experiment, which was repeated 3–7 times (Rubinstein et al. [1990]; Bramson et al. [1995]).
Twenty microliter of MTT solution (MTT: 3-(4,5-dimethylthiazol-2-yl)-2,5-diphenyltetrazolium bromide, stock solution: 5 mg/ml) was added to each well and incubated for 4 h. After the incubation time was complete, 80 µl of the lysis mixture was added to each well (lysis mixture: 225 ml dimethylformamide, 67.5 g sodium dodecyl sulfate and 275 ml of distilled water). The optical densities of the samples were read after 24 h on a Synergy H4 (BioTek Instruments USA) photometer microtiter plate reader at 570 nm (Sidoryk et al. [2012]). All of chemicals were obtained from Sigma-Aldrich, Germany.

[2] = tested on: human lung carcinoma A549 cells; test: In vitro antiproliferative assay (SRB), A549; format: cell-based; conditions: mean ± SD; for IC50 A549: 72 h exposure; for IC50: Homo sapiens, A549, 72 h exposure
Procedure: (§1) Biphenotypic B myelomonocytic leukemia MV4-11, human lung carcinoma A549, human breast carcinoma MCF-7, and normal mouse fibroblast BALB/3T3 cells were obtained from American Type Culture Collection (Rockville, Maryland, USA). All the cell lines are being maintained at the Institute of Immunology and Experimental Therapy, Wroclaw, Poland. MV4-11 cells were cultured in RPMI 1640 medium (Gibco, UK) with 2 mM L-glutamine adjusted to contain 1.0 mM sodium pyruvate, and 10% fetal bovine serum (FBS) (all from Sigma-Aldrich, Germany). A549 cells were cultured in RPMI 1640+ Opti-MEM (1:1) (both from Gibco, UK), MCF-7 cells in Eagle medium (IIET, Wroclaw, Poland), BALB/3T3 in Dulbecco medium (IIET, Poland) supplemented with 2 mM L-glutamine and 1.0 mM sodium pyruvate, 10% fetal bovine serum (all from Sigma-Aldrich, Germany). The MCF-7 cell culture was supplemented with 0.8 mg/l of insulin (Sigma-Aldrich, Germany). All culture media were supplemented with 100 units/ml penicillin, and 100 µg/ml streptomycin (both from Polfa Tarchomin S.A., Poland). All cell lines were grown at 37 °C with 5% CO2 humidified atmosphere (Łączkowski et al. [2014], [2016a]). Prior to usage, the compounds were dissolved in DMSO and culture medium (1: 9) to the concentration of 1 mg/ml, and subsequently diluted in culture medium to reach the required concentrations (0.1, 1, 10, and 100 µg/ml) (Łączkowski et al. [2014], [2016a]). Twenty-four hours prior to the addition of the tested compounds, the cells counted using Burker hemocytometer were plated in 96-well plates (Sarstedt, Germany) at a density of 1 × 10^4 cells per well. The assay was performed after 72 h of exposure to varying concentrations of the tested agents. The in vitro cytotoxic effect of all agents was examined using the SRB assay for adherent cells (A549, MCF-7, and BALB/3T3) or MTT assay for leukemia cells (MV4-11) as described previously. […] Each compound in each concentration was tested in triplicate in a single experiment, which was repeated 3–7 times (Rubinstein et al. [1990]; Bramson et al. [1995]). Cells were attached to the bottom of plastic wells by fixing them with cold 50% TCA (trichloroacetic acid, POCH, Gliwice, Poland) on top of the culture medium in each well. The plates were incubated at 4 °C for 1 h and then washed five times with tap water. The cellular material fixed with TCA was stained with 0.1% sulforhodamine B (SRB, Sigma-Aldrich, Germany) and dissolved in 1% acetic acid (POCH, Gliwice, Poland) for 30 min. Unbound dye was removed by rinsing (4×) in 1% acetic acid. The protein-bound dye was extracted with 10 mM unbuffered Tris base (Sigma-Aldrich, Germany) for determination of the optical density (λ = 540 nm) in a computer-interfaced, 96-well Synergy H4 (BioTek Instruments USA) photometer microtiter plate reader (Sidoryk et al. [2012]).

[3] = tested on: human breast carcinoma MCF-7 cells; test: In vitro antiproliferative assay (SRB), MCF-7; format: cell-based; conditions: mean ± SD; for IC50 MCF-7: 72 h exposure; for IC50: Homo sapiens, MCF7, 72 h exposure
Procedure: as §1

Compound	IC50 MV4-11 [1] [µg/mL]	IC50 A549 [2]	IC50 MCF-7 [3]	IC50 [1] [µg/mL]	IC50 [2] [µg/mL]	IC50 [3] [µg/mL]	melting point [°C]
CC(=O)Nc1ccc(-c2csc(N/N=C(\C)c3ccc(Nc4nc(N)nc(N)n4)cc3)n2)cc1 [Compound 4g, (E)-N^2-(4-(2-(2-(1-(4-(4,6-diamino-1,3,5-triazin-2-yloamino)phenyl)ethylidene)hydraziny)thiazol-4-yl)phenyl)-acetamide]	2.76 ± 0.521	no antiproliferative activity	6.67 ± 2.958 µg/mL				
C/C(=N\Nc1nc(-c2ccc(Cl)cc2)cs1)c1ccc(Nc2nc(N)nc(N)n2)cc1 [Compound 4b, (E)-N^2-(4-(1-(2-(4-(4-chlorophenyl)-1,3-thiazol-2-yl)hydrazinylidene)ethyl)phenyl)-1,3,5-triazine-2,4,6-triamine]				1.89 ± 0.45	23.8 ± 4.41	3.23 ± 0.401	237 to 239
C/C(=N\Nc1nc(-c2ccc(NS(C)(=O)=O)cc2)cs1)c1ccc(Nc2nc(N)nc(N)n2)cc1 [Compound 4j, (E)-N-(4-(2-(2-(1-(4-(4,6-diamino-1,3,5-triazin-2-yloamino)phenyl)ethylidene)hydrazinyl)thiazol-4-yl)phenyl)-methanesulfonamide]	1.73 ± 0.091	no antiproliferative activity	5.95 ± 2.165 µg/mL				
C/C(=N\Nc1nc(-c2ccccc2)cs1)c1ccc(Nc2nc(N)nc(N)n2)cc1 [Compound 4k, (E)-N^2-(4-(1-(2-(4-phenyl-1,3-thiazol-2-yl)hydrazinylidene)ethyl)phenyl)-1,3,5-triazine-2,4,6-triamine]		no antiproliferative activity		2.3 ± 0.97		5.73 ± 2.05	> 300
C/C(=N\Nc1nc(-c2ccc([N+](=O)[O-])cc2)cs1)c1ccc(Nc2nc(N)nc(N)n2)cc1 [Compound 4h, (E)-N^2-(4-(1-(2-(4-(4-nitrophenyl)-1,3-thiazol-2-yl)hydrazinylidene)ethyl)phenyl)-1,3,5-triazine-2,4,6-triamine]				3.01 ± 0.476	33.6 ± 2.42	8.72 ± 5.28	
C/C(=N\Nc1nc(-c2ccc(Br)cc2)cs1)c1ccc(Nc2nc(N)nc(N)n2)cc1 [Compound 4d, (E)-N^2-(4-(1-(2-(4-(4-bromophenyl)-1,3-thiazol-2-yl)hydrazinylidene)ethyl)phenyl)-1,3,5-triazine-2,4,6-triamine]				2.14 ± 0.464	24.7 ± 6.1	3.18 ± 0.192	226 to 230
C/C(=N\Nc1nc(-c2ccc(Cl)c(Cl)c2)cs1)c1ccc(Nc2nc(N)nc(N)n2)cc1 [Compound 4i, (E)-N^2-(4-(1-(2-(4-(3,4-dichlorophenyl)-1,3-thiazol-2-yl)hydrazinylidene)ethyl)phenyl)-1,3,5-triazine-2,4,6-triamine]				1.37 ± 0.186	57.5 ± 20.7	3.69 ± 1.64	
C/C(=N\Nc1nc(-c2ccc(F)cc2)cs1)c1ccc(Nc2nc(N)nc(N)n2)cc1 [Compound 4a, (E)-N^2-(4-(1-(2-(4-(4-fluorophenyl)-1,3-thiazol-2-yl)hydrazinylidene)ethyl)phenyl)-1,3,5-triazine-2,4,6-triamine]				3.21 ± 0.454	38.6 ± 4.17	4.28 ± 0.984	223 to 225
C/C(=N\Nc1nc(-c2ccc(C)cc2)cs1)c1ccc(Nc2nc(N)nc(N)n2)cc1 [Compound 4c, (E)-N^2-(4-(1-(2-(4-(4-tolyl)-1,3-thiazol-2-yl)hydrazinylidene)ethyl)phenyl)-1,3,5-triazine-2,4,6-triamine]				3.09 ± 0.726	62.4 ± 11.5	8.33 ± 2.83	231 to 233
C/C(=N\Nc1nc(-c2cc3ccccc3oc2=O)cs1)c1ccc(Nc2nc(N)nc(N)n2)cc1 [Compound 4f, (E)-3-(2-(2-(1-(4-(4,6-diamino-1,3,5-triazin-2-yloamino)phenyl)ethylidene)hydrazinyl)thiazol-4-yl)-2H-chromen-2-on]	3.08 ± 0.851	no antiproliferative activity	─				
C/C(=N\Nc1nc(-c2ccc(I)cc2)cs1)c1ccc(Nc2nc(N)nc(N)n2)cc1 [Compound 4e, (E)-N^2-(4-(1-(2-(4-(4-iodophenyl)-1,3-thiazol-2-yl)hydrazinylidene)ethyl)phenyl)-1,3,5-triazine-2,4,6-triamine]				1.13 ± 0.25	45.4 ± 18.3	8.41 ± 0.373	248 to 251
